# Laboratory results: patent US11767520B2, “Compositions and methods for treating lung inflammation” (aTyr Pharma, Inc., priority 2017, dated 2023)
# Columns and labels:
# Type in all cases: in vivo, rat (male Sprague Dawley)
# [1] = system: bleomycin-induced respiratory impairment; experiment: Respiratory measurements by whole body plethysmography, BLM rat model, combination study (Example 3, Table E6); design: Tidal Volume: unit not given here; settings: for Expiratory Time / Inspiratory Time / Peak Expiratory Flow / Peak Inspiratory Flow / Tidal Volume / Respiratory Rate / Respiratory Minute Volume: mean; for Respiratory Rate: in breaths/min (unit assumed); for Respiratory Minute Volume: in mL/min (unit assumed)
# Protocol: (§1) PBS or BLM was administered under isoflurane anesthesia. Excess rats were induced with BLM and used to replace any animals with excessive body weight loss.
# (§2) All treatments commenced on Day 9.
# (§3) In-life, body weights were measured and clinical observations were conducted daily. On Days 8, 15 and 21, animals were removed from their home cages and placed individually into whole body plethysmography chambers. After a 20-minute acclimatization phase, respiratory parameters were recorded for 10 minutes. Pre-study and on Days 10 and Day 17, whole blood was obtained from the tail vein and processed to serum for measurement of HRS^FC1.
# [2] = Body weight, BLM rat model (Example 2); settings: BLM-induced rats; Nintedanib 60 mg/kg PO daily; Test Article = HRS^FC1 0.1-3 mg/kg IV weekly
# Protocol: PBS or BLM was administered under isoflurane anesthesia.
# In-life, body weights were measured and clinical observations were conducted daily. On Day 8 and Day 15, animals were removed from their home cages and placed individually into whole body plethysmography chambers. After a 20-minute acclimatization phase, respiratory parameters were recorded for 10 minutes.
# [3] = Body weight, BLM rat model, combination study (Example 3); settings: BLM-induced rats; Nintedanib, Pirfenidone or Test Article (HRS^FC1 3 mg/kg IV weekly), alone or in combination, from Day 9
# Protocol: as §1, §2, §3
# [4] = system: bleomycin-induced lung fibrosis; experiment: Histological fibrosis (modified Ashcroft) score, BLM rat model (Example 2); settings: BLM-induced rats
# Protocol: The five lung lobes were collected and weighed. The right lung lobes were inflated and fixed in 10% neutral buffered formalin and embedded in paraffin for histological analysis. An approximately 50 mg piece of the left lung lobe was snap frozen and stored at −80° C. for potential RNA analysis. The remainder of the lobe was also snap frozen until analyzed for collagen content.
# Sections for histology were stained using picrosirius red and were scored in a blinded fashion (1 score for each of the 4 lobes) by a veterinary pathologist using a modified Ashcroft score (Hubner et al., 2008). Hydroxyproline content was determined in the left lung lobe using a mass spectrometry method.
# Slides were read by a veterinary pathologist and each of the 4 lobes evaluated was assigned 4 scores [Ashcroft for fibrosis (scores range from 0 to 8), perivascular/peribronchiolar inflammatory cell infiltrate (scores range from 0 to 5), interstitial/alveolar inflammatory cell infiltrate (scores range from 0 to 5), type II pneumocyte hyperplasia (scores range from 0 to 5)].
# Having noted the high variability in mean Ashcroft Index Scores within groups and also in lung pathology within each individual due to the focal nature of the model, we analyzed Ashcroft scores from all fields scored (4 per animal), which increased the number of observations to 24-32 in BLM-induced groups.
# [5] = Day 8 (prior to any treatments), Ninte. PO + Vehicle IV group
structure (smiles),measurement,setting,value
"COC(=O)c1ccc2c(c1)NC(=O)/C2=C(\Nc1ccc(N(C)C(=O)CN2CCN(C)CC2)cc1)c1ccccc1 [Nintedanib, nintedanib]",BLM-induced alterations in respiratory parameters,"[1]; BLM-induced rats, Day 15 and Day 21, Nintedanib, Pirfenidone or Test Article (HRS^FC1)",did not significantly impact
same,Expiratory Time,[1]; [5],0.151 s
same,Inspiratory Time,[1]; [5],0.115 s
same,Peak Expiratory Flow,[1]; [5],18.4
same,Peak Inspiratory Flow,[1]; [5],17.2
same,Tidal Volume,[1]; [5],1.19
same,Respiratory Rate,[1]; [5],249.0
same,Respiratory Minute Volume,[1]; [5],304.5
same,Expiratory Time,"[1]; Day 15, Ninte. PO + Vehicle IV",0.205 s
same,Inspiratory Time,"[1]; Day 15, Ninte. PO + Vehicle IV",0.122 s
same,Peak Expiratory Flow,"[1]; Day 15, Ninte. PO + Vehicle IV",16.5
same,Peak Inspiratory Flow,"[1]; Day 15, Ninte. PO + Vehicle IV",19.0
same,Tidal Volume,"[1]; Day 15, Ninte. PO + Vehicle IV",1.35
same,Respiratory Rate,"[1]; Day 15, Ninte. PO + Vehicle IV",223.4
same,Respiratory Minute Volume,"[1]; Day 15, Ninte. PO + Vehicle IV",309.5
same,Expiratory Time,"[1]; Day 21, Ninte. PO + Vehicle IV",0.231 s
same,Inspiratory Time,"[1]; Day 21, Ninte. PO + Vehicle IV",0.127 s
same,Peak Expiratory Flow,"[1]; Day 21, Ninte. PO + Vehicle IV",13.9
same,Peak Inspiratory Flow,"[1]; Day 21, Ninte. PO + Vehicle IV",18.1
same,Tidal Volume,"[1]; Day 21, Ninte. PO + Vehicle IV",1.44
same,Respiratory Rate,"[1]; Day 21, Ninte. PO + Vehicle IV",203.7
same,Respiratory Minute Volume,"[1]; Day 21, Ninte. PO + Vehicle IV",286.0
same,Body weight curves vs respective controls,[2],None of the groups treated with Nintedanib or Test Article had body weight curves that significantly differed
same,Body weight curves vs respective controls,[3],"None of the groups treated with Nintedanib, Pirfenidone or Test Article alone or in combination had body weight curves that significantly differed"
same,Decrease of group mean Ashcroft score vs respective vehicle,"[4]; Day 22, Nintedanib PO, Test Article = HRS^FC1 1 mg/kg IV on Days 2, 9 and 16, not significant",5%
same,"Group mean Ashcroft score, significance vs respective vehicle","[4]; Day 22, Nintedanib PO, Test Article = HRS^FC1 IV",did not meet statistical criteria
same,Overall effects in this experiment,"[4]; Nintedanib (50 mg/kg/dose) starting on Day 9, as printed in Summary",no significant effects
